Data on 5 molecules can be found in US20250188078A1, “SMALL MOLECULE INHIBITORS OF THE CRL4 UBIQUITIN LIGASE” (Cornell University, priority 2022, published 2025).

Like-named read-outs stand apart in the source and are kept apart here.

Data set [1] has as its target T1, DDB1-BPB (Homo sapiens (Human), UniProt Q16531). Briefly: Microscale Thermophoresis (MST) binding to DDB1-BPB. The conditions noted are these: labeled DDB1-BPB, 25° C. The protocol:
Kd represents dissociation constant, which measures the affinity of small molecule binding to the scaffold DDB1-BPB by Microscale Thermophoresis (MST) (see Table 1, column 9). MST experiments were performed on a Monolith NT 115 system (Nano Temper Technologies, Munich, Germany) using 100% LED and 60% IR-laser power (https://physiology.case.edu/media/eq manuals/eq_manual_nano-temper_mst_starting_guide.pdf, hereby incorporated by reference in its entirety for all purposes). The labeling of DDB1-BPB ([…]) was performed in labeling buffer with NHS-Red reactive dye (30 μM) (Nanotemper), which reacts efficiently with the primary amines of the proteins to form a stable dye protein conjugates. The labeling reaction was carried out at RT. A 16-point serial dilution (1:1) was prepared for compound at the final concentration ranged from 200 µM to 3 nM in PBS containing 0.05% tween. The samples were filled into Premium capillaries and measurements were conducted at 25° C. An equation implemented by the software MO-S002 MO Affinity Analysis, provided by the manufacturer, was used for fitting normalized fluorescence values at different concentrations of ligands.

In data set [2] the test system is CUL4A^high MDA-MB-468 breast cancer cells. Briefly: Cell killing in CUL4-high MDA-MB-468 cells (CellTiter Glo). The class given is cell-based. Conditions: Homo sapiens, 8 days treatment. The method in brief:
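Cells seeded, treated after 24 h with DMSO or compound (0 to 20 μM). Medium and compound replaced every 48 h over 8 days. Viability measured by CellTiter-Glo luminescence; EC50 (50% killing) from log(inhibitor) vs response nonlinear fit.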

Data set [3] deals with CUL4A^low T47D breast cancer cells. In words: Cell killing in CUL4-low T47D cells (CellTiter Glo). In kind it is cell-based. The conditions noted are these: Homo sapiens, 192 h, 8 days treatment. The procedure: EC50 indicates compound concentration can cause 50% cell killing in CUL4° ^w T47D cells (see Table 1, column 7). CUL4A^low T47D breast cancer cells were seeded in 96 well plate. […] Change fresh medium and compounds every 48 hours. After 8 days treatment, cell viability was examined by using CellTiter Glo kit (Promega #7570) following the manufacturer's guidelines (https://www.promega.com/-/media/files/resources/protocols/technical-bulletins/0/celltiter-glo-luminescent-cell-viability-assay-protocol.pdf?rev=0d95c232094b41daa06d0c110d1d916f&sc_lang=en, hereby incorporated by reference in its entirety for all purposes). EC50 concentration was calculated by Prism 8 XY analysis nonlinear regression (curve fit-Log(inhibitor) vs response). EC50 indicates cell killing potential in CUL4 low T47D cell line and the EC50 difference between CUL4^high and CUL4^low cells indicates the small molecule cause specific cell killing.
CUL4A^high MDA-MB-468, CUL4^low (T47D), and MCF7 breast cancer cells were seeded in 96 well plates separately. […] Replace with fresh medium and compounds every 48 hours. After 8 days treatment, cell viability was examined by CellTiter Glo kit (Promega #7570). First, transfer the appropriate volume (10 ml for Cat. #G7570) of CellTiter-Glo® Buffer into the amber bottle containing CellTiter-Glo® Substrate to reconstitute the lyophilized enzyme/substrate mixture. This forms the CellTiter-Glo® Reagent. Second, add CellTiter-Glo® Reagent in an equal volume (100 μl per well for 96-well plates) to all wells. Mix contents for 2 minutes on an orbital shaker to induce cell lysis. Incubate at room temperature for 15 minutes to stabilize luminescent signal. Then record luminescence. EC50 concentration was calculated by Prism 8 XY analysis nonlinear regression (curve fit-Log(inhibitor) vs response).

The target of data set [4] is CUL4A-DDB1-BPB interaction (Homo sapiens (Human), UniProt Q16531). Briefly: AlphaLISA in vitro binding assay, CUL4A and DDB1-BPB binding. The conditions noted are these: inhibition of CUL4A and DDB1-BPB binding. The method in brief:
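Compound disruption of CUL4A binding to DDB1-BPB measured by AlphaLISA/AlphaScreen bead proximity in 384-well format. IC50 from nonlinear log(inhibitor)-vs-response curve fit.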

For data set [5], the system named is MCF7 breast cancer cells. Briefly: Cell killing in MCF7 cells (CellTiter Glo). The class given is cell-based. Conditions: Homo sapiens, MCF7, 192 h; Table 3, 0 to 20 μM compound, 8 days treatment. The protocol: CUL4A^high MDA-MB-468, CUL4^low (T47D), and MCF7 breast cancer cells were seeded in 96 well plates separately. Cells were treated with DMSO, or from 0 to 20 μM compound respectively. Replace with fresh medium and compounds every 48 hours. After 8 days treatment, cell viability was examined by CellTiter Glo kit (Promega #7570). First, transfer the appropriate volume (10 ml for Cat. #G7570) of CellTiter-Glo® Buffer into the amber bottle containing CellTiter-Glo® Substrate to reconstitute the lyophilized enzyme/substrate mixture. This forms the CellTiter-Glo® Reagent. Second, add CellTiter-Glo® Reagent in an equal volume (100 μl per well for 96-well plates) to all wells. Mix contents for 2 minutes on an orbital shaker to induce cell lysis. Incubate at room temperature for 15 minutes to stabilize luminescent signal. Then record luminescence. EC50 concentration was calculated by Prism 8 XY analysis nonlinear regression (curve fit-Log(inhibitor) vs response).

Data set [6] deals with T1, DDB1-BPB. Briefly: Surface Plasmon Resonance (SPR) binding to DDB1-BPB. The conditions noted are these: DDB1-BPB immobilized. The source says:
Kd represents dissociation constant, which measures the affinity of small molecule binding to the scaffold DDB1-BPB by Surface Plasmon Resonance (SPR) (https://www.bio-rad.com/webroot/web/pdf/lsr/literature/Bulletin_6414.pdf, hereby incorporated by reference in its entirety) (see Table 1, column 8). To assess the interaction between DDB1-BPB and compounds, a multi-parametric SPR instrument (BioRad ProteON XPR360) was used. DDB1-BPB was immobilized onto the GLH sensor surface in a variety of ways as follows: flow channels were activated in parallel with 1/20 diluted EDC/SNHS. DDB1-BPB was diluted to 0.1 mg/mL in sodium acetate pH 4.5 and directly coupled onto channel for 4 min. Excess reactive esters were blocked with a 5-min injection of 1 M ethanolamine. Mean immobilization levels were 17,000 RU with <2% variation along a strip. One channel was left unmodified to provide an additional reference surface. Next, the binding kinetics of compounds on surfaces was determined in a single injection using a “one-shot” kinetic mode. Typically, compound was prepared as a twofold serial dilution (0, 3.125, 6.25, 12.5, 25, 50 μM) and injected for 60 s at […]. Dissociation was monitored for 800 s. Surfaces were regenerated with multiple 30-s pulses of 60 mM phosphoric acid so that the experiment could be reproduced. All resulting sensor grams were collected and analyzed using the ProteOn manager software.

A short description of data set [7]: Dynamic light scattering (DLS) solubility assay. The class given is physicochemical. Conditions: normalized intensity ratio of 25 μM compound vs DMSO, in PBS. The method in brief: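 Compounds diluted from DMSO into PBS at final concentrations of 200 μM to 0.78 μM, in triplicate, and aggregation measured by light scattering intensity. A ratio above 2 scores insoluble (−), below 2 soluble (+), and around 2 (+/−).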

The test system of data set [8] is UV-induced CUL4-dependent DDB2 degradation in MEF-F-DDB2 cells. In words: Cell-based assay for inhibition of UV-induced CUL4-dependent DDB2 degradation. Also noted: key: (+) means that the normalized DDB2/α-tubulin ratio is higher in the compound treated sample than DMSO treated sample; (−) means that no change happens between compound treated sample with control sample. The conditions noted are these: DDB2/α-tubulin by Western blot. In outline:
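MEF cells expressing Flag-DDB2, in serum-free medium, treated with DMSO or compound, UV-irradiated (254 nm, 0.2 W/m^2), then harvested. Flag-DDB2 measured by western blot against α-tubulin; (+) denotes normalized DDB2/α-tubulin above DMSO, (−) no change.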

The mark [9] stands for this setting: 192 h, MDA-MB-468 cells, read-out: EC50 CUL4-High Cells (cell killing).
The mark [10] stands for this setting: T47D cells, read-out: EC50 CUL4-Low Cells (cell killing).

T1 sequence (Q16531 403-706): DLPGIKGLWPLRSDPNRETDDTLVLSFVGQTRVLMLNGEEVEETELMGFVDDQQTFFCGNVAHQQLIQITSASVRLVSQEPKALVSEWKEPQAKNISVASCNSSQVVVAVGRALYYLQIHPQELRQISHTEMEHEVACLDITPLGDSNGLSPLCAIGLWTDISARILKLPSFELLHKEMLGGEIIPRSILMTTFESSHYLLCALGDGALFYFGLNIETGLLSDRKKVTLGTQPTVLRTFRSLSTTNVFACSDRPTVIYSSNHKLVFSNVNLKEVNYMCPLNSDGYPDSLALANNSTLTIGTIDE
CUL4A-DDB1-BPB interaction, sequence (Q16531 403-706): as above

`CN(c1ccc(-c2nc(C(=O)O)cc3c2[nH]c2cc(F)ccc23)cc1)S(=O)(=O)c1ccccc1` [PA1-3, 7-fluoro-1-(4-(N-methylphenylsulfonamido)phenyl)-9H-pyrido[3,4-b]indole-3-carboxylic acid] yielded a Kd in data set [1] of 0.72 µM. In addition, the EC50 in data set [2] (setting [9]) came to 0.48 µM; in data set [2] (MDA-MB-468, 192 h, Table 3, 0 to 20 μM compound, read-out: EC50 OF cell killing, MDA-MB-468) it was 0.49 µM; in data set [3] (setting [10]), 3.42 µM; in data set [3] (T47D, Table 3, 0 to 20 μM compound, read-out: EC50 OF cell killing, T47D) it was 3.42 µM; in data set [5], 3.36 µM. For the same molecule, the IC50 in data set [4] is 0.53 µM.
With `O=C(O)c1cc2c([nH]c3ccccc32)c(-c2ccc(NCc3ccc(F)cc3)cc2)n1` [PA68, 1-[4-[(4-fluorophenyl)methylamino]phenyl]-9H-pyrido[3,4-b]indole-3-carboxylic acid], the “Kd (MST)” value in data set [1] is reported as “Insoluble”. Besides, the EC50 in data set [2] (setting [9]) is 9.12 µM; in data set [3] (setting [10]) it was 11 µM. The molecule also yielded a Kd in data set [6] of 13.2 µM. Further, the IC50 in data set [4] is 2.33 ± 0.86 µM.
Take `COC(=O)c1cccc(-c2nc(C(=O)OC(C)(C)C)cc3c2[nH]c2ccccc23)c1` [PA43]: the EC50 in data set [2] (setting [9]) amounted to 28.3 µM; in data set [3] (setting [10]) it was 48.2 µM. For the same molecule, the “Kd (SPR)” value in data set [6] is recorded as “no binding”. In data set [4], the “AlphaLisa IC50” value is listed as “Neg”. Further, the “Solubility (DLS Assay)” value in data set [7] is given as “-(insoluble)”.
Consider `CS(=O)(=O)c1ccc(-c2nc(C(=O)O)cc3c2[nH]c2ccc(O)cc23)cc1` [PA73], for which the EC50 in data set [2] (setting [9]) and in data set [3] (setting [10]) was over 100 µM each time. Also, the Kd in data set [6] stood at 7.34 µM. Also, in data set [4], the IC50 was 0.73 ± 0.35 µM. In addition, in data set [7], the “Solubility (DLS Assay)” value is on record as “+/−”.
On to `CS(=O)(=O)N(Cc1ccccc1)c1ccc(-c2nc(C(=O)O)cc3c2[nH]c2ccccc23)cc1` [PA76, 1-[4-[benzyl(methylsulfonyl)amino]phenyl]-9H-pyrido[3,4-b]indole-3-carboxylic acid], for which the EC50 in data set [2] (setting [9]) is 28.9 µM; in data set [3] (setting [10]), over 100 µM. In data set [8], the “Degradation Inhibition (inhibition of UV-induced DDB2 degradation)” value is on record as “+”. Binding in data set [6] was characterised by a dissociation constant (Kd) of 4.54 µM. Further, the IC50 in data set [4] worked out at 1.52 ± 1.13 µM.
